Results as given in US20020049157A1, “Use of proteasome inhibitors for treating cancer, inflammation, autoimmune disease, graft rejection and septic shock” (priority 1998, published 2002).

Legend:
Tonsillar B cells = assay: B cell proliferation induced with SAC plus IL-2 (3H-thymidine uptake); assay type: cell-based, human
Experimental: Lymphocytes were stimulated with various mitogens as indicated, and LAC at different concentrations was added at the beginning of the cultures. The cells were pulsed with 3H-thymidine between 48 h and 64 h. Samples were in triplicates. All the experiments were performed at least three times and similar results were obtained. Representative results are shown.
D: Tonsillar B cells stimulated with SAC (1:15,000 dilution) and IL-2 (100 μ/ml).
The role of proteasome in T cell activation and proliferation was first examined in PBMC, using the proteasome-specific inhibitor LAC. The PBMC were activated with various stimulants. LAC was added to the cells in the beginning of the culture (0 h) along with the stimulants. ^3H-thymidine uptake between 48 h and 64 h of 64 h cultures was used as a parameter for cell proliferation. […] Rather, it likely affects certain downstream events governing a more general process(es) in lymphocyte activation and proliferation.
Peripheral blood mononuclear cells (PBMC) and tonsillar T cells were prepared as described before (Luo et al., 1992, Transplantation 53:1071; Luo et al., 1993, Clin. & Exp. Immunol. 94:371). The cells were cultured in RPMI 1640 supplemented with 10% FCS, L-glutamine and antibiotics. ^3H-thymidine uptake was carried out as described previously (Luo et al., 1992, supra; Luo et al., 1993, supra).

Tonsillar T cells [1] = assay: T cell viability by trypan blue exclusion; assay type: cell-based, human; conditions: for decrease of viability compared with cells without LAC: 10 μM LAC, medium or PHA
Experimental: Tonsillar T cells (A, B, and D) and Jurkat cells (C and E) were treated with LAC (10 μM for T cells and 6 μM for Jurkat cells). LAC was added at the beginning of the culture or 40 h after T cell activation as indicated. The cells were harvested at the time points as shown. They were evaluated for their viability with trypan blue exclusion (A, B, and C), and for their mode of cell death according to DNA fragmentation (D and E).
The viability of T cells and Jurkat cells after LAC-treatment was first evaluated with trypan blue exclusion. Resting T cells (T cells in medium) or PHA-stimulated T cells were cultured with 10 μM LAC (LAC added at the beginning of the culture).
There was a tendency that the activated T cells were more susceptible to LAC than the resting T cells. This became more evident when LAC was added to T cells 40 h after the PHA activation (FIG. 2B). […] On the other hand, the viability of the resting T cells in medium had only a small decrease (from 98% of the control to 87% of the LAC-treated) after 24 h of LAC presence.

Jurkat cells = assay: Jurkat cell viability by trypan blue exclusion; assay type: cell-based; conditions: 6 μM LAC
Experimental: Tonsillar T cells (A, B, and D) and Jurkat cells (C and E) were treated with LAC (10 μM for T cells and 6 μM for Jurkat cells). LAC was added at the beginning of the culture or 40 h after T cell activation as indicated. The cells were harvested at the time points as shown. They were evaluated for their viability with trypan blue exclusion (A, B, and C), and for their mode of cell death according to DNA fragmentation (D and E). The effect of LAC on Jurkat cells was quite similar to that on the activated T cells.

Tonsillar T cells [2] = assay: Electron microscopy of T cells; assay type: cell-based, human; conditions: LAC 10 μM, 24 h
Experimental: A and B: Morphology of resting T cells treated with LAC. Tonsillar T cells were culture in the absence (A) or presence (B) of LAC ([…]) for 24 h, and the cells were examined by EM.
C and D: Morphology of activated T cells treated with LAC. Tonsillar T cells were first activated with PHA (2 μg/ml) for 40 h. The cells were then cultured in the absence (C) or presence (D) of LAC (10 μM) for additional 24h, and were examined with EM.
Electron microscopy was also employed to examine the mode of cell death induced by LAC. The resting T cells (cells cultured in medium, FIG. 3A), activated T cells (40 h after PHA activation, FIG. 3C), and Jurkat cells (FIG. 3E) were all healthy looking. […] The resting T cells treated with LAC (10 μM) for 24 h were still healthy (FIG. 3B).
T cells and Jurkat cells were examined by electron microscopy as described by Tsao and Duguid (Tsao et al., 1987, Exp. Cell Res. 168:365).

ICAM-1 = ICAM-1 expression on 2C TCR transgenic lymph node T cells (flow cytometry); assay type: cell-based, mouse; conditions: Con A plus 10 μM lactacystin; 24 h and 48 h
Experimental: After 24 h and 48 h, the cells were examined for ICAM-1 expression by flow cytometry, using FITC-anti-ICAM-1/1B2-PE. Monoclonal Ab 1B2 recognize a clonotypic determinant on the TCR of the transgenic T cells which are largely CD8 positive (>75%).
Cell-cell interaction is essential in antigen presentation and in T cell's help to T and B cells. The adhesion molecules are necessary to establish the cell-cell interaction. Blocking the adhesion molecules ICAM-1 and LFA-1 is known to inhibit immune responses and to suppress graft rejection. […] Therefore, inhibition of the proteasome activity will be a useful way to control undesirable immune responses during graft rejection, autoimmune diseases, and inflammation.

SMILES: CC(=O)N[C@@H](CSC(=O)[C@]1([C@@H](O)C(C)C)NC(=O)[C@H](C)[C@@H]1O)C(=O)O [LAC, lactacystin]
- inhibition of B cell proliferation (3H-thymidine uptake) (Tonsillar B cells; LAC added at 0 h): potently inhibited
- extent of inhibition of B cell proliferation (Tonsillar B cells; LAC at 5 μM): near-to-maximal inhibition
- decrease of viability compared with cells without LAC (Tonsillar T cells [1]; 16 h culture): < 12%
- decrease of viability compared with cells without LAC (Tonsillar T cells [1]; 64 h culture): less than 27%
- viability (trypan blue exclusion) (Tonsillar T cells [1]; PHA-stimulated T cells, 10 μM LAC added at beginning, 16 h): 83%
- viability (trypan blue exclusion) (Tonsillar T cells [1]; PHA-stimulated T cells, 10 μM LAC added at beginning, 64 h): 63%
- viability of the LAC-treated cell (Tonsillar T cells [1]; PHA, LAC 10 μM added once initially, at 40 h): > 80%
- viability of the treated cells (Tonsillar T cells [1]; PHA, LAC added once at the beginning, at 16 h): 83
- change of viability (trypan blue exclusion) (Tonsillar T cells [1]; activated T cells, LAC added 40 h after PHA, 9 h culture): did not change the viability significantly
- viability (trypan blue exclusion) (Tonsillar T cells [1]; activated T cells, LAC added 40 h after PHA, additional 24 h culture): 46%
- viability (trypan blue exclusion) (Tonsillar T cells [1]; resting T cells in medium, 10 μM LAC added at beginning, 16 h): 92%
- viability (trypan blue exclusion) (Tonsillar T cells [1]; resting T cells in medium, 10 μM LAC added at beginning, 64 h): 79%
- viability (trypan blue exclusion) (Tonsillar T cells [1]; resting T cells in medium, 24 h of LAC presence): 87%
- trypan blue positive cells (Jurkat cells; 24 h culture): about 60%
- cell death (trypan blue) (Jurkat cells; less than 8 h exposure): did not induce apparent Jurkat cell death
- nuclear condensation by electron microscopy (Tonsillar T cells [2]; activated T cells (40 h after PHA)): frequently observed
- morphology by electron microscopy (Tonsillar T cells [2]; resting T cells): still healthy
- upregulation of ICAM-1 on CD8 positive T cells (ICAM-1): effectively block the upregulation of ICAM-1
